Assay [1] concerns the target Metabotropic glutamate receptor 4 (Homo sapiens) (UniProt Q14833). Put plainly: Tested for inhibition of glutamate induced stimulation of Metabotropic glutamate receptor 4 in HEK 293 cells. As to conditions: HEK293; concentration not given here. It counts as functional, cell-based.
Assay [2] concerns the target Metabotropic glutamate receptor 1 (Homo sapiens, UniProt Q13255). Put plainly: Effect of compound on Metabotropic glutamate receptor 1 expressed in HEK 293 cells was determined by measuring IP production relative to glutamate. It is filed as functional, cell-based, HEK293.
Assay [3] has as its target Metabotropic glutamate receptor 2 (Homo sapiens) (UniProt Q14416). The assay is described as follows: Tested for inhibition of glutamate induced stimulation of Metabotropic glutamate receptor 2 in HEK 293ells. Particulars: HEK293; concentration not given here. It is filed as functional, cell-based.

Structures are written as SMILES.

Chain of Metabotropic glutamate receptor 2 (Homo sapiens) (Q14416 19-872 limits assumed): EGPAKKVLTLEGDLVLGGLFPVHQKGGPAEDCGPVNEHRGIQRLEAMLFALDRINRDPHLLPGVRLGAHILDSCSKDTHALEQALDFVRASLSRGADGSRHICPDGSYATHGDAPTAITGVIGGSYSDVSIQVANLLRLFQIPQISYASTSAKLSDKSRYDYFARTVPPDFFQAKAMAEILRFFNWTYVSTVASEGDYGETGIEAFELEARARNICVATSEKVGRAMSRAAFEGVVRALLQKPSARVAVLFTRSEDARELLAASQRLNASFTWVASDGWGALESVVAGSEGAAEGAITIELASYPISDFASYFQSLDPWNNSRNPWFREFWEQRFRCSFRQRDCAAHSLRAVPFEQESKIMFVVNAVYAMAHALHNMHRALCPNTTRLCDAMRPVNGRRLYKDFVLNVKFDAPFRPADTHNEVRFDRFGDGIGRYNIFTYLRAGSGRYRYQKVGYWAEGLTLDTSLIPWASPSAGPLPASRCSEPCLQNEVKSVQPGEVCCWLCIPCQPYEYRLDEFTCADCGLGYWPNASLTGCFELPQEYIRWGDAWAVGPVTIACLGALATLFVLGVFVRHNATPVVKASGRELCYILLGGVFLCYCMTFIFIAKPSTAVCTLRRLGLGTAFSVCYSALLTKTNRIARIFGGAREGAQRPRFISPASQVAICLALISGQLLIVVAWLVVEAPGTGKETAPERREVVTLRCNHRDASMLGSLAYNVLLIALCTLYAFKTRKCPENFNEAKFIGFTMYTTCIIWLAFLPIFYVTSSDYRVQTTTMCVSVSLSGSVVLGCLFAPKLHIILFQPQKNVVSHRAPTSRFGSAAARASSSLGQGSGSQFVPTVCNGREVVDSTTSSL
Chain of Metabotropic glutamate receptor 4 (Homo sapiens) (Q14833 whole entry): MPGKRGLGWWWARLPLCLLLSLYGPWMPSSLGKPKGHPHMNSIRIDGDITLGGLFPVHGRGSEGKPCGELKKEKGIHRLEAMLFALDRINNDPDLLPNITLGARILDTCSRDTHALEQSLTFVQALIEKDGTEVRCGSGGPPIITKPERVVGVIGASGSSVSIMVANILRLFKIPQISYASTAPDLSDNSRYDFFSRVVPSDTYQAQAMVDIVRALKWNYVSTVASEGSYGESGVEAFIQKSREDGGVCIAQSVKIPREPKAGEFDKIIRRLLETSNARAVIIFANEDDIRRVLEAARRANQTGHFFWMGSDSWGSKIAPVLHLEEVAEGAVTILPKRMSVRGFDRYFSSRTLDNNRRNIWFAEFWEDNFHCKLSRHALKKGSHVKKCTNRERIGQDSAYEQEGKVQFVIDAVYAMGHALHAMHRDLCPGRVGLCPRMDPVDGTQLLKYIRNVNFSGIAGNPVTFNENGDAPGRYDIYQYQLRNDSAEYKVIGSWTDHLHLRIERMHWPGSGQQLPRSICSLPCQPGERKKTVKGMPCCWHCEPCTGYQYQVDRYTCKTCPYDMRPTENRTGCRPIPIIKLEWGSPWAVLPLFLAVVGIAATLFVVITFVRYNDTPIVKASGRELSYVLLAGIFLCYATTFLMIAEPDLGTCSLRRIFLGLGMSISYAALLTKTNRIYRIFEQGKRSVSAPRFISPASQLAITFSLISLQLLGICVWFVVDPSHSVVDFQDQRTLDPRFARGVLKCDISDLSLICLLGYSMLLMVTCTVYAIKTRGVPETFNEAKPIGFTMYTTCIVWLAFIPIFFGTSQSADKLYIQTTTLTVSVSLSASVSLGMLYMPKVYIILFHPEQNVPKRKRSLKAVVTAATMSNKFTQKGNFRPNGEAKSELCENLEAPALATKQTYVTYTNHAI
Chain of Metabotropic glutamate receptor 1 (Q13255 whole entry): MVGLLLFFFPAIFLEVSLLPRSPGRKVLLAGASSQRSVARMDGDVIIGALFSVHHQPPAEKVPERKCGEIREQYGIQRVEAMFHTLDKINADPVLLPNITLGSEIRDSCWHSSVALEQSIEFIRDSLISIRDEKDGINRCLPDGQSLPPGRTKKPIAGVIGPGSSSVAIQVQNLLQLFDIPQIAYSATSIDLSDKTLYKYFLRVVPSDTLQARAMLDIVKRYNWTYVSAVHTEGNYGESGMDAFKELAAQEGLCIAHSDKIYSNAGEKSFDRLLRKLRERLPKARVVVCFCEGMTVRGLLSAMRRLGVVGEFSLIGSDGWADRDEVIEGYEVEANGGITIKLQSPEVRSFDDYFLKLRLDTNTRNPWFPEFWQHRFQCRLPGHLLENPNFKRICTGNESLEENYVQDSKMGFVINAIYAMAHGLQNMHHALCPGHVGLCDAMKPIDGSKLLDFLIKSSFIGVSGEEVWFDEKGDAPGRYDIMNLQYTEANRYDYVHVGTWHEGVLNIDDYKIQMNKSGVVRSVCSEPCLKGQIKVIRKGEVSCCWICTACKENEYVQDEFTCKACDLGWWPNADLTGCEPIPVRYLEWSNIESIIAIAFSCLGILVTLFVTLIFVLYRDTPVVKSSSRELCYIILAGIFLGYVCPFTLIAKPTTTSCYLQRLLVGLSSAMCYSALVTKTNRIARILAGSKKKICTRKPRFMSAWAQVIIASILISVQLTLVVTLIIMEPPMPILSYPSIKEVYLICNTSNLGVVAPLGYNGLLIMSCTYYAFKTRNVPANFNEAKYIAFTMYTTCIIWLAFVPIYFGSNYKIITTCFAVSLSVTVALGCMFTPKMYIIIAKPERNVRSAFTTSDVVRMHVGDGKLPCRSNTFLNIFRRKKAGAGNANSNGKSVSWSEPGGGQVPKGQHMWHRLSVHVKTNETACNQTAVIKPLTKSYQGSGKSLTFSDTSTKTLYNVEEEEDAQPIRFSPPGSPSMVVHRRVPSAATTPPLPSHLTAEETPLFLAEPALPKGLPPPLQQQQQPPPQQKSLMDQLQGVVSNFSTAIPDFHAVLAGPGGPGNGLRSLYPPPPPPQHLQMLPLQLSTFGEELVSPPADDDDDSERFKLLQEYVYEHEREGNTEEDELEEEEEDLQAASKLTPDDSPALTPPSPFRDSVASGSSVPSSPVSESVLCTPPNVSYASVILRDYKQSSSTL

Broadly, the inhibition is how much of the control response was suppressed. Read a high inhibition as a response far below the control. By EC50 is commonly meant the concentration giving half of the maximal effect. On to `N[C@H](C(=O)O)[C@H](O)[C@H](O)C(=O)O`, for which the inhibition in assay [1] was 57%; in assay [3] it was 29%. Moreover, a half-maximal response in assay [2] (EC50) required 257 µM.
